# Earlier results, collected in patent publication US10716758B2, “Liposomal statin formulation” (Southwest Research Institute, priority 2018, dated 2020).
# Columns and labels:
# scar, rabbit ear model = details: relatively low doses (40 μM)
# [1] = 20° C. to 25° C.
Structure (SMILES),"scar elevation index vs control (scar, rabbit ear model)",solubility in water (in words) [1]
CC[C@H](C)C(=O)O[C@H]1C[C@@H](C)C=C2C=C[C@H](C)[C@H](CC[C@@H]3C[C@@H](O)CC(=O)O3)[C@H]21 [lovastatin],reduction in the scar elevation index,–
CC[C@H](C)C(=O)O[C@H]1C[C@H](O)C=C2C=C[C@H](C)[C@H](CC[C@@H](O)C[C@@H](O)CC(=O)O)[C@H]21 [pravastatin],–,soluble in water
